According to PubChem BioAssay AID270 (DTP/NCI, 2004):
Values joined by “and” are separate entries in the source; they are usually repeats but may differ in a detail not shown here. Identical values can stand only once. Records with an inconclusive call do not appear.

Tested on: BDF1 mice, s.c. Lewis lung carcinoma, T/C %
Assay: NCI In Vivo Anticancer Drug Screen. Data for tumor model Lewis Lung Carcinoma (subcutaneous) in B6D2F1 (BDF1) mice
How it was run: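 Transplanted tumors grown in mice; compound vs vehicle dosing; endpoint survival or tumor size; ratio T/C.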

`Nc1ccc2ccccc2c1N=Nc1ccccc1` was tested, and the T/C (endpoint: mean tumor weight, dose: 500.0 mg/kg/injection, schedule: Q01DX011 (ip), vehicle: other, higher = larger tumour) was 105 % of control, the T/C (endpoint: median survival time, dose: 50.0 mg/kg/injection, schedule: Q01DX009 (ip), vehicle: Klucel (hydroxypropylcellulose) (HPC), higher = longer survival) was 104 % of control and the T/C (endpoint: median survival time, dose: 100.0 mg/kg/injection, schedule: Q01DX009 (ip), vehicle: Klucel (hydroxypropylcellulose) (HPC), higher = longer survival) was 104 % of control. The T/C (endpoint: median survival time, dose: 200.0 mg/kg/injection, schedule: Q01DX009 (ip), vehicle: Klucel (hydroxypropylcellulose) (HPC), higher = longer survival) was 98 % of control and the T/C (endpoint: median survival time, dose: 400.0 mg/kg/injection, schedule: Q01DX009 (ip), vehicle: Klucel (hydroxypropylcellulose) (HPC), higher = longer survival) was 95 % of control.
In the case of `O=C(O)CP(=O)(O)O`, the T/C (endpoint: median survival time, dose: 4.0 mg/kg/injection, schedule: Q01DX009 (ip), vehicle: saline, higher = longer survival) is reported as 105 % of control, the T/C (endpoint: median survival time, dose: 8.0 mg/kg/injection, schedule: Q01DX009 (ip), vehicle: saline, higher = longer survival) is reported as 97 % of control and the T/C (endpoint: median survival time, dose: 16.0 mg/kg/injection, schedule: Q01DX009 (ip), vehicle: saline, higher = longer survival) is reported as 106 % of control. For the same compound, the T/C (endpoint: median survival time, dose: 32.0 mg/kg/injection, schedule: Q01DX009 (ip), vehicle: saline, higher = longer survival) was 91 % of control, the T/C (endpoint: median survival time, dose: 64.0 mg/kg/injection, schedule: Q01DX009 (ip), vehicle: saline, higher = longer survival) was 87 % of control and the T/C (endpoint: median survival time, dose: 128.0 mg/kg/injection, schedule: Q01DX009 (ip), vehicle: saline, higher = longer survival) was 86 % of control.
In the case of `O=C(Nc1ccc(C2=NCCCN2)cc1)c1ccc(C(=O)Nc2ccc(C3=NCCCN3)cc2)cc1`, the T/C (endpoint: mean tumor weight, dose: 0.25 mg/kg/injection, schedule: Q01DX011 (ip), vehicle: other, higher = larger tumour) is reported as 73 % of control, the T/C (endpoint: mean tumor weight, dose: 0.5 mg/kg/injection, schedule: Q01DX011 (ip), vehicle: other, higher = larger tumour) is reported as 98 % of control and the T/C (endpoint: mean tumor weight, dose: 1.0 mg/kg/injection, schedule: Q01DX011 (ip), vehicle: other, higher = larger tumour) is reported as 85 % of control. The T/C (endpoint: mean tumor weight, dose: 2.0 mg/kg/injection, schedule: Q01DX011 (ip), vehicle: other, higher = larger tumour) was 73 % of control and the T/C (endpoint: mean tumor weight, dose: 4.0 mg/kg/injection, schedule: Q01DX011 (ip), vehicle: other, higher = larger tumour) was 7 % of control.
In the case of `Cc1cccc(NC(=O)N(CCCl)N=O)c1`, the T/C (endpoint: median survival time, dose: 0.38 mg/kg/injection, schedule: Q01DX009 (ip), vehicle: saline with Tween-80, higher = longer survival) is reported as 96 % of control, the T/C (endpoint: median survival time, dose: 0.75 mg/kg/injection, schedule: Q01DX009 (ip), vehicle: saline with Tween-80, higher = longer survival) is reported as 102 % of control and the T/C (endpoint: median survival time, dose: 3.0 mg/kg/injection, schedule: Q01DX009 (ip), vehicle: saline with Tween-80, higher = longer survival) is reported as 92 % of control.
In the case of `CC(C)n1c2c([n+](C)c1/C=C/c1ccccc1)C(=O)c1ccccc1C2=O`, the T/C (endpoint: median survival time, dose: 0.5 mg/kg/injection, schedule: Q01DX009 (ip), vehicle: saline, higher = longer survival) is reported as 96 % of control and the T/C (endpoint: median survival time, dose: 1.0 mg/kg/injection, schedule: Q01DX009 (ip), vehicle: saline, higher = longer survival) is reported as 110 % of control.
In the case of `O=C(Nc1ccc(C(=O)O)cc1)Oc1ccc(N(CCCl)CCCl)cc1`, the T/C (endpoint: median survival time, dose: 6.25 mg/kg/injection, schedule: Q01DX009 (ip), vehicle: Klucel (hydroxypropylcellulose) (HPC), higher = longer survival) is reported as 100 % of control, the T/C (endpoint: median survival time, dose: 12.5 mg/kg/injection, schedule: Q01DX009 (ip), vehicle: Klucel (hydroxypropylcellulose) (HPC), higher = longer survival) is reported as 100 % of control and the T/C (endpoint: median survival time, dose: 25.0 mg/kg/injection, schedule: Q01DX009 (ip), vehicle: Klucel (hydroxypropylcellulose) (HPC), higher = longer survival) is reported as 88 % of control.
In the case of `C=C[C@]1(C)C=C2CC[C@@H]3[C@](C)(CCC[C@@]3(C)C(=O)O)[C@H]2CC1`, the T/C (endpoint: mean tumor weight, dose: 7.8 mg/kg/injection, schedule: Q01DX011 (ip), vehicle: saline, higher = larger tumour) is reported as 73 % of control, the T/C (endpoint: mean tumor weight, dose: 15.6 mg/kg/injection, schedule: Q01DX011 (ip), vehicle: saline, higher = larger tumour) is reported as 55 % of control and the T/C (endpoint: mean tumor weight, dose: 31.3 mg/kg/injection, schedule: Q01DX011 (ip), vehicle: saline, higher = larger tumour) is reported as 43 % of control. For the same compound, the T/C (endpoint: mean tumor weight, dose: 62.5 mg/kg/injection, schedule: Q01DX011 (ip), vehicle: saline, higher = larger tumour) was 98 % of control and 102 % of control, the T/C (endpoint: mean tumor weight, dose: 125.0 mg/kg/injection, schedule: Q01DX011 (ip), vehicle: saline, higher = larger tumour) was 102 % of control and the T/C (endpoint: mean tumor weight, dose: 250.0 mg/kg/injection, schedule: Q01DX011 (ip), vehicle: saline, higher = larger tumour) was 82 % of control.
`C[C@@H]1CC[C@@]2(NC1)O[C@H]1C[C@H]3[C@@H]4CC=C5C[C@@H](O)CC[C@]5(C)[C@H]4CC[C@]3(C)[C@H]1[C@@H]2C` was tested, and the T/C (endpoint: mean tumor weight, dose: 12.0 mg/kg/injection, schedule: Q01DX011 (sc), vehicle: steriod suspending solution, higher = larger tumour) was 73 % of control, the T/C (endpoint: mean tumor weight, dose: 16.6 mg/kg/injection, schedule: Q01DX011 (ip), vehicle: carboxymethylcellulose (CMC), higher = larger tumour) was 56 % of control and 59 % of control and 70 % of control and the T/C (endpoint: mean tumor weight, dose: 18.0 mg/kg/injection, schedule: Q01DX011 (sc), vehicle: steriod suspending solution, higher = larger tumour) was 75 % of control. For the same compound, the T/C (endpoint: mean tumor weight, dose: 40.0 mg/kg/injection, schedule: Q01DX011 (sc), vehicle: steriod suspending solution, higher = larger tumour) was 94 % of control, the T/C (endpoint: mean tumor weight, dose: 50.0 mg/kg/injection, schedule: Q01DX011 (ip), vehicle: carboxymethylcellulose (CMC), higher = larger tumour) was 97 % of control and the T/C (endpoint: mean tumor weight, dose: 54.0 mg/kg/injection, schedule: Q01DX011 (sc), vehicle: steriod suspending solution, higher = larger tumour) was 92 % of control. For the same compound, the T/C (endpoint: mean tumor weight, dose: 80.0 mg/kg/injection, schedule: Q01DX011 (sc), vehicle: steriod suspending solution, higher = larger tumour) was 119 % of control, the T/C (endpoint: mean tumor weight, dose: 100.0 mg/kg/injection, schedule: Q01DX011 (sc), vehicle: steriod suspending solution, higher = larger tumour) was 83 % of control and the T/C (endpoint: mean tumor weight, dose: 200.0 mg/kg/injection, schedule: Q01DX011 (sc), vehicle: steriod suspending solution, higher = larger tumour) was 58 % of control. For the same compound, the T/C (endpoint: mean tumor weight, dose: 400.0 mg/kg/injection, schedule: Q01DX011 (sc), vehicle: steriod suspending solution, higher = larger tumour) was 104 % of control.
